Results: US20240299400A1, “Transcription Factor GLI1 Inhibitors and Uses Thereof” (University of Connecticut, priority 2023, published 2024)

Assays:
[1] = system: GLI1 mRNA expression; experiment: RT-qPCR GLI1 mRNA expression in OHCs-stimulated C3H10T1/2 MEFs; type: cell-based, mouse; details: Table 4, racemates and enantiomers, mean ± SEM; read-out: RT-qPCR, IC50 C3H10T1/2
Description: (§1) ASZ001 and Sufu-KO cells were seeded in 96-well plates (10,000/well, 100 μL) and incubated overnight under growth conditions. On the second day, ‘growth’ media was removed and replaced by ‘assay’ media (100 μL). On the third day, cells were treated with a serial dilution of drugs or DMSO for 48 h. mRNA expression was determined through Taqman Fast Cells-to-CT Kit (#4399003) per the manufacturer's instructions. In brief, cells were washed with chilled PBS, then mixed with lysis solution containing DNase I and incubated at RT for 5 min. Stop solution was then added to quench the lysis reagents. cDNA was then synthesized through a BioRad MyCycler following addition of reverse transcriptase. Finally, the cDNA was amplified through an ABI 7500 system following addition of Taqman Fast Universal PCR Master Mix and Taqman Gene Expression Primer. Relative gene expression levels were computed by the ΔΔCt method. Values represent mRNA expression relative to DMSO control (set at 1.0). Data were analyzed using GraphPad Prism, and IC50 values are the mean±SEM for at least two separate experiments performed in triplicate. Primers used are as follows: mouse ActB (Mm00607939_s1); mouse GLI1 (Mm00494645_ml); mouse Gli2 (Mm01293117_ml); mouse Ptch1 (Mm00436026_ml); mouse Hhip (Mm00469580_ml).
C3H10T1/2 MEFs were seeded in 24-well plates (50,000/well, 500 μL). Following 24 h incubation, the ‘growth’ media was removed and replaced with ‘assay’ media (500 μL). On the third day, cells were treated with either DMSO, OHCs, or OHCs+drugs. Following a 24 h incubation, gene expression analysis was carried out following identical protocols as described above.

[2] = molecular target: T1, GLI1-ZFD (Homo sapiens, UniProt P08151); experiment: Surface plasmon resonance (SPR) binding to GLI1-ZFD; details: analyte 100 to 3.125 μM, 1:1 binding fit
T1 construct: GLI1-ZFD Expression and Purification; made in house
T1 sequence (P08151 234-388 limits assumed): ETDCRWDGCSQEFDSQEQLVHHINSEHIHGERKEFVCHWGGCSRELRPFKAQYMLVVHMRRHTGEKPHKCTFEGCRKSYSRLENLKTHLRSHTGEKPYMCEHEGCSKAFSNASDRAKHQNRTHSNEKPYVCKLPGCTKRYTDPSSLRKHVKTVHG
Description: SPR studies were performed on a Biacore T200 as a contract service by Creative Biolabs (Shirley, NY, USA), utilizing the same procedure described previously [G. Yernale, A comprehensive review on the biological interest of quinoline and its derivatives. Bioorg. Med. Chem. 32 (2021) 115973]. Briefly, GLI1 protein was immobilized on a Series S CM5 sensor chip (GE Healthcare), and various concentrations of compound 1a/b were injected (flow rate, 30 μL/min) with a contact time of 180 s and dissociation time of 600 s. Kinetic parameters were determined by the Biacore T200 evaluation software.

[3] = molecular target: T1, GLI1-ZFD; experiment: Microscale thermophoresis (MST) binding to GLI1-ZFD
Description: The protein expression and purification experiments followed the previous reported procedures [C. A. Maschinot, et al., Synthesis and evaluation of third generation vitamin D3 analogues as inhibitors of hedgehog signaling. Euro. J. Med. Chem. 162 (2019) 495-506].
GLI1 protein labeling was performed through the Monolith Protein Labeling Kit RED-NHS 2nd Generation (Nanotemper #MO-LO11) per the manufacturer's instructions. Briefly, GLI1 (100 μg, 1 mg/mL) underwent buffer exchange to remove incompatible ingredients like Tris or DTT. Proteins in the Labeling Buffer were incubated with freshly prepared dye (˜3-fold excess of dye) for 30 min at RT in the dark. Unreacted ‘free’ dye was removed by a gel-filtration column. Protein concentration and degree-of-labeling were calculated by measuring absorption at 280 nm and 650 nm. For each assay, 200 nM GLI1 in MST Buffer was mixed with compound dilution in DMSO (DMSO<5%, v/v). The mixture was then loaded to a capillary and the thermophoresis was subsequently determined through Monolith NT.115 station. Results were analyzed by MO.Affinity Analysis software and visualized by Graphpad Prism. MST Buffer: 50 mM HEPES, pH 8.3, 100 mM NaCl.

[4] = system: GLI1 mRNA expression; experiment: RT-qPCR GLI1 mRNA expression in ASZ001 BCC cells; type: cell-based, mouse; details: read-out: RT-qPCR, IC50 ASZ001
Description: as §1

[5] = system: GLI1 mRNA expression; experiment: RT-qPCR GLI1 mRNA expression in Sufu-KO MEFs; type: cell-based, mouse; details: read-out: RT-qPCR, IC50 Sufu-KO
Description: as §1

[6] = system: DAOY (MB); experiment: MTS anti-proliferative assay in DAOY cells; type: cell-based; details: Homo sapiens, Daoy; Table 8, 48 h, mean ± SEM
Description: (§2) Cell viability was assessed by MTS proliferation assay kit (Promega) per manufacturer's protocol. Briefly, 2×10^4 cells were plated in a 96-well plate in 100 μL growth medium to make the cell population at ˜80% confluence. After 24 h, 1 μL drug solution was added to each well. DMSO was used as vehicle compound. After 48 h incubation (37° C., 5% CO2), 20 μL of freshly prepared 3-(4,5-dimethylthiazol-2-yl)-5-(3-carboxymethoxyphenyl)-2-(4-sulfophenyl)-2H-tetrazolium (MTS)/phenazine methosulfate (PMS) solution was added to each well, and the plate was returned to the incubator for 1 h. Absorbance at 490 nm was recorded, and the result was analyzed by GraphPad Prism 5. GI50 values represent mean±SEM for at least two separate experiments performed in triplicate.

[7] = system: ASZ001 cells; experiment: MTS anti-proliferative assay in ASZ001 cells; type: cell-based, murine; details: Mus musculus, ASZ001, Ave ± SEM
Description: as §2

[8] = system: PANC-1 (pancreatic); experiment: MTS anti-proliferative assay in PANC-1 cells; type: cell-based; details: Homo sapiens, PANC-1; Table 8, 48 h, mean ± SEM
Description: as §2

[9] = Table 4, racemates and enantiomers, mean ± SEM
[10] = Mus musculus, ASZ001, Table 5, GLI1 mRNA, Ave ± SEM
[11] = Mus musculus, Table 5, GLI1 mRNA, Ave ± SEM
[12] = Mus musculus, ASZ001, Table 7, GLI1 mRNA, Ave ± SEM
[13] = Mus musculus, Table 7, GLI1 mRNA, Ave ± SEM

Structure (SMILES)	GI50 [6] [µM]	GI50 [8] [µM]	GI50 ([7]; Table 7, 48 h) [µM]	IC50 [4, 12] [µM]	IC50 [5, 13] [µM]	also measured
CCN(CC)c1ccc(C(Nc2ccccn2)c2ccc3ccc(C)nc3c2O)cc1 (single isomer, unassigned) [Compound 1a]	–	–	–	–	–	IC50 [1]: 0.71 ± 0.26 µM; Ka ([2]; listed as 1a (R)): 171 M⁻¹ s⁻¹; Kd ([2]; listed as 1a (R)): 0.00165 s⁻¹; Rmax ([2]; listed as 1a (R)): 62.84; Kd ([2]; read-out: KD): 9.66 µM; Kd ([3]; Table 4, mean ± SEM): 12.9 ± 1.6 µM; IC50 ([4]; Mus musculus, ASZ001, Table 4, racemates and enantiomers, mean ± SEM): 1.8 ± 0.7 µM; IC50 [5, 9]: 1.7 ± 0.6 µM
CCN(CC)c1ccc(C(Nc2ccccn2)c2ccc3ccc(C)nc3c2O)cc1 (single isomer, unassigned) [Compound 1b]	–	–	–	–	–	IC50 [1]: 0.12 ± 0.08 µM; Ka ([2]; listed as 1b (S)): 70.3 M⁻¹ s⁻¹; Kd ([2]; listed as 1b (S)): 0.00131 s⁻¹; Rmax ([2]; listed as 1b (S)): 78.64; Kd ([2]; read-out: KD): 18.7 µM; Kd ([3]; Table 4, mean ± SEM): 22.1 ± 4.3 µM; IC50 [4, 9]: 1.9 ± 0.6 µM; IC50 [5, 9]: 0.75 ± 0.38 µM
CCN(CC)c1ccc(CNc2ccccn2)cc1 [Compound 14, N-(4-Diethylaminobenzyl)pyridin-2-amine]	45.2 ± 7.7	61.9 ± 9.3	–	–	–	GI50 ([7]; Table 5, 48 h): 34.9 ± 6.1 µM; Kd ([3]; Table 5, Ave ± SEM): > 125 µM; IC50 [4, 10]: 10 ± 3.2 µM; IC50 [5, 11]: > 25 µM
CCN(CC)c1ccc(C(Nc2ccccn2)c2ccc3cccnc3c2O)cc1 (centres unmarked) [Compound 15, 7-((4-Diethylaminophenyl)(pyridin-2-ylamino)methyl)quinolin-8-ol]	8.2 ± 1.6	10 ± 1.1	–	–	–	GI50 ([7]; Table 5, 48 h): 12.2 ± 2 µM; IC50 [4, 10]: 1.4 ± 0.4 µM; IC50 [5, 11]: 1.1 ± 0.3 µM
CCN(CC)c1ccc(C(Nc2ccccn2)c2ccccc2O)cc1 (centres unmarked) [Compound 18, 2-((4-Diethylaminophenyl)(pyridin-2-ylamino)methyl)phenol]	–	> 100	–	–	–	GI50 ([7]; Table 5, 48 h): > 100 µM; Kd ([3]; Table 5, Ave ± SEM): > 125 µM; IC50 [4, 10]: 15.2 ± 5 µM; IC50 [5, 11]: > 25 µM
Cc1ccc2c(C)cc(C(C)Nc3ccccc3)c(O)c2n1 (centres unmarked) [Compound 33, 2,5-Dimethyl-7-(1-(phenylamino)ethyl)quinolin-8-ol]	–	56.3 ± 9.4	29.5 ± 5.1	7.1 ± 2	8.8 ± 2.7	–
Cc1ccc2ccc(C(Nc3ccccn3)c3ccccc3)c(O)c2n1 (centres unmarked) [Compound 34, 7-(Phenyl(pyridin-2-ylamino)methyl)-2-methylquinolin-8-ol]	> 100	94.3 ± 19.5	> 100	21.3 ± 5.2	7.2 ± 2	binding to GLI1 (in words) ([3]; MST binding assay): do not bind GLI1; Kd ([3]; Table 7, Ave ± SEM): > 125 µM
Cc1ccc2ccc(C(Nc3ccccn3)c3ccc([N+](=O)[O-])cc3)c(O)c2n1 (centres unmarked) [Compound 40, 7-((4-Nitrophenyl)(pyridin-2-ylamino)methyl)-2-methylquinolin-8-ol]	75.2 ± 17.4	> 100	61.8 ± 27.5	17.3 ± 6.1	5.6 ± 0.9	–
Cc1ccc2ccc(C(Nc3ccccn3)c3ccc(N(C)C)cc3)c(O)c2n1 (centres unmarked) [Compound 42, 7-((4-Dimethylaminophenyl)(pyridin-2-ylamino)methyl)-2-methylquinolin-8-ol]	18.3 ± 3.6	45.4 ± 10.3	10.1 ± 1.8	1.5 ± 0.6	1.2 ± 0.3	–
Cc1ccc2ccc(C(Nc3ccccn3)c3ccc(N4CCCC4)cc3)c(O)c2n1 (centres unmarked) [Compound 43, 7-((4-(Pyrrolidin-1-yl)phenyl)(pyridin-2-ylamino)methyl)-2-methylquinolin-8-ol]	12.8 ± 1.9	29.6 ± 5.2	8.8 ± 2.4	1.3 ± 0.3	1.2 ± 0.6	–
Cc1ccc2ccc(C(Nc3ccccn3)c3ccc(N4CCCCC4)cc3)c(O)c2n1 (centres unmarked) [Compound 44, 7-((4-(Piperidin-1-yl)phenyl)(pyridin-2-ylamino)methyl)-2-methylquinolin-8-ol]	22.6 ± 4	52.7 ± 5.3	27.7 ± 5.3	4 ± 0.8	4.5 ± 1	–
Cc1ccc2ccc(C(Nc3ccccn3)c3ccc(N4CCOCC4)cc3)c(O)c2n1 (centres unmarked) [Compound 45, 7-((4-Morpholinophenyl)(pyridin-2-ylamino)methyl)-2-methylquinolin-8-ol]	24.2 ± 5.8	61.1 ± 11.5	18.3 ± 1.5	2.2 ± 0.8	1.4 ± 0.4	–
Cc1ccc2ccc(C(Nc3ccccn3)c3ccc(-n4cccc4)cc3)c(O)c2n1 (centres unmarked) [Compound 49, 7-((4-(1H-Pyrrol-1-yl)phenyl)(pyridin-2-ylamino)methyl)-2-methylquinolin-8-ol]	–	> 100	91.7 ± 21	14.2 ± 2.4	1.1 ± 0.4	Kd ([3]; Table 7, Ave ± SEM): 28.5 ± 7.2 µM
CS(=O)(=O)c1ccc(C(=O)Nc2ccc(Cl)c(-c3ccccn3)c2)c(Cl)c1 [GDC-0449, reference compound]	–	80.7 ± 14.2	–	–	–	GI50 ([7]; Table 5, 48 h): 73.6 ± 13.7 µM; IC50 [4, 10]: 0.04 ± 0.01 µM; IC50 [5, 11]: > 25 µM
